Structures can show the parent of a compound that is named as a salt.

Sequence of recombinant human cGAS (Q8N884 whole entry): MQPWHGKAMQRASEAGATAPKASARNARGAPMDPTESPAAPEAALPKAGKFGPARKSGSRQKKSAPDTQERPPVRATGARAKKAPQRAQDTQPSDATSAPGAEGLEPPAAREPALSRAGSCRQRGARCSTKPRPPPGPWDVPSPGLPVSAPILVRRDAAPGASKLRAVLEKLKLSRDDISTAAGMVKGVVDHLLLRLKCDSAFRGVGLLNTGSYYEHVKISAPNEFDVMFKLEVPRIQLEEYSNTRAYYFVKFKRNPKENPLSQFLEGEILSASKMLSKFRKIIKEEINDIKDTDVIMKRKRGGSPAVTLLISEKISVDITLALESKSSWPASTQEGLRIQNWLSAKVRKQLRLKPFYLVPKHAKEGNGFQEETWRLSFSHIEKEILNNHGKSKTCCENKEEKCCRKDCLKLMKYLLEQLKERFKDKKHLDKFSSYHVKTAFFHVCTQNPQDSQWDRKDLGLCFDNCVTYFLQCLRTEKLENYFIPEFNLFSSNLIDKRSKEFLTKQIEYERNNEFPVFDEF

In this assay the target is recombinant human cGAS (Homo sapiens (Human), UniProt Q8N884). Description: In vitro inhibition assay of cGAS activity (cGAMP production, RapidFire mass spectrometry). Format: biochemical. The note with it: 10 nM recombinant human cGAS, 60 nM 75-bp dsDNA, ATP, GTP, room temperature 3 hours, read-out: IC50 (μM), In vitro inhibition assay for Compounds 1-94. The method, then:
Expression and Purification of Recombinant cGAS Protein: Insert cDNA encoding full-length of human cGAS into a modified bacterial expression vector containing an in-frame His6-tag. Induce the E. coli strain BL21(DE3) harboring the plasmid with 1 mM IPTG (Isopropyl β-D-1-thiogalactopyranoside) at 18° C. overnight. Purify the His6-tagged cGAS protein over HISpur Ni-NTA resin in the presence of benzonase and RNase followed by Superdex 200 size exclusion chromatography with storage buffer (50 mM Tris-HCl pH 7.5, 300 mM NaCl, 1 mM DTT, 10% glycerol).
In vitro inhibition assay of cGAS activity: Add a 5 μL mixture containing 10 mM Tris-Cl pH 7.5, 50 mM NaCl, 5 mM MgCl2, 1 mM DTT, 0.01% Triton X-100, 60 nM 75-bp dsDNA, […], 50 μM GTP, 10 nM of recombinant human cGAS, and serial dilutions of a test compound in DMSO to a 384-well plate and incubate at room temperature for 3 hours. Quench the reaction by the addition of 100 μL of stop solution containing 0.1% formic acid and 0.1 μM internal standard (3′3′-difluoro cGAMP). Measure the amount of cGAMP produced by RapidFire 365 mass spectrometry and evaluate inhibitory effect of a compound by plotting percent specific inhibition of cGAMP production against log concentration of the test compound. Calculate IC50 values using a 4-parameter non-linear logistic equation (y=(S0+((SInf−S0)/(1+((qAC50/x)^nHill))))).
Turning to `O=C(O)CCn1cc(-c2cn[nH]c2)c2ccc(Cl)c(Cl)c21` [Example 35, 3-[6,7-Dichloro-3-(1H-pyrazol-4-yl)indol-1-yl]propanoic acid], the IC50 was 0.0737 µM.

For `O=C(O)Cn1cc(-n2cc(-c3cn[nH]c3)c3ccc(Cl)c(Cl)c32)cn1` [Example 36, 2-[4-[6,7-Dichloro-3-(1H-pyrazol-4-yl)indol-1-yl]pyrazol-1-yl]acetic acid], the IC50 is 0.0535 µM. As for `Clc1ccc2c(-c3cn[nH]c3)c3n(c2c1Cl)CCNC3` [Example 37, 6,7-Dichloro-10-(1H-pyrazol-4-yl)-1,2,3,4-tetrahydropyrazino[1,2-a]indole hydrochloride], the figure is 0.09 µM; as for `CC(=O)N1CCn2c(c(-c3cn[nH]c3)c3ccc(Cl)c(Cl)c32)C1` [Example 38, 1-[6,7-Dichloro-10-(1H-pyrazol-4-yl)-3,4-dihydro-1H-pyrazino[1,2-a]indol-2-yl]ethanone], 0.0404 µM.

Turning to `CNC(=O)N1CCn2c(c(-c3cn[nH]c3)c3ccc(Cl)c(Cl)c32)C1` [Example 39, 6,7-dichloro-N-methyl-10-(1H-pyrazol-4-yl)-3,4-dihydro-1H-pyrazino[1,2-a]indole-2-carboxamide], the IC50 stood at 0.0392 µM.

For the compound `NS(=O)(=O)N1CCn2c(c(-c3cn[nH]c3)c3ccc(Cl)c(Cl)c32)C1` [Example 40, 6,7-dichloro-10-(1H-pyrazol-4-yl)-3,4-dihydro-1H-pyrazino[1,2-a]indole-2-sulfonamide], the IC50 was 0.0525 µM. Under `CS(=O)(=O)N1CCn2c(c(-c3cn[nH]c3)c3ccc(Cl)c(Cl)c32)C1` [Example 41, 6,7-dichloro-2-methylsulfonyl-10-(1H-pyrazol-4-yl)-3,4-dihydro-1H-pyrazino[1,2-a]indole] stands 0.0328 µM; under `COCC(=O)N1CCn2c(c(-c3cn[nH]c3)c3ccc(Cl)c(Cl)c32)C1` [Example 42, 1-[6,7-dichloro-10-(1H-pyrazol-4-yl)-3,4-dihydro-1H-pyrazino[1,2-a]indol-2-yl]-2-methoxy-ethanone], 0.0273 µM. As for `O=C(Cn1cncn1)N1CCn2c(c(-c3cn[nH]c3)c3ccc(Cl)c(Cl)c32)C1` [Example 43, 1-[6,7-dichloro-10-(1H-pyrazol-4-yl)-3,4-dihydro-1H-pyrazino[1,2-a]indol-2-yl]-2-(1,2,4-triazol-1-yl)ethanone], the figure is 0.0912 µM; as for `CN(C)C(=O)CCC(=O)N1CCn2c(c(-c3cn[nH]c3)c3ccc(Cl)c(Cl)c32)C1` [Example 44, 4-[6,7-dichloro-10-(1H-pyrazol-4-yl)-3,4-dihydro-1H-pyrazino[1,2-a]indol-2-yl]-N,N-dimethyl-4-oxo-butanamide], 0.0534 µM; as for `O=C(CN1CCOCC1)N1CCn2c(c(-c3cn[nH]c3)c3ccc(Cl)c(Cl)c32)C1` [Example 45, 1-[6,7-dichloro-10-(1H-pyrazol-4-yl)-3,4-dihydro-1H-pyrazino [1,2-a]indole-2-yl]-2-morpholino-ethanone], 0.0834 µM. `Cn1ncnc1COCC(=O)N1CCn2c(c(-c3cn[nH]c3)c3ccc(Cl)c(Cl)c32)C1` [Example 46, 1-[6,7-dichloro-10-(1H-pyrazol-4-yl)-3,4-dihydro-1H-pyrazino[1,2-a]indol-2-yl]-2-[(2-methyl-1,2,4-triazol-3-yl)methoxy]ethanone]: the IC50 was 0.027 µM. As for `COCc1nnc(CN2CCn3c(c(-c4cn[nH]c4)c4ccc(Cl)c(Cl)c43)C2)o1` [Example 47, 2-[[6,7-dichloro-10-(1H-pyrazol-4-yl)-3,4-dihydro-1H-pyrazino[1,2-a]indol-2-yl]methyl]-5-(methoxymethyl)-1,3,4-oxadiazole formic acid salt], the figure is 0.0333 µM; as for `O=C(CN1CCOC1=O)N1CCn2c(c(-c3cn[nH]c3)c3ccc(Cl)c(Cl)c32)C1` [Example 48], 0.0443 µM; as for `CN1CCOC(C(=O)N2CCn3c(c(-c4cn[nH]c4)c4ccc(Cl)c(Cl)c43)C2)C1` (centres unmarked) [Example 50, [6,7-dichloro-10-(1H-pyrazol-4-yl)-3,4-dihydro-1H-pyrazino[1,2-a]indol-2-yl]-(4-methylmorpholin-2-yl)methanone], 0.04 µM. As for `O=C(C1COCCO1)N1CCn2c(c(-c3cn[nH]c3)c3ccc(Cl)c(Cl)c32)C1` (centres unmarked) [Example 51, [6,7-dichloro-10-(1H-pyrazol-4-yl)-3,4-dihydro-1H-pyrazino[1,2-a]indol-2-yl]-(1,4-dioxan-2-yl)methanone], the figure is 0.0427 µM; as for `CC(=O)N(C)CC(=O)N1CCn2c(c(-c3cn[nH]c3)c3ccc(Cl)c(Cl)c32)C1` [Example 52, N-[2-[6,7-dichloro-10-(1H-pyrazol-4-yl)-3,4-dihydro-1H-pyrazino[1,2-a]indol-2-yl]-2-oxo-ethyl]-N-methyl-acetamide], 0.0975 µM. As for `O=C(CO)N1CCn2c(c(-c3cn[nH]c3)c3ccc(Cl)c(Cl)c32)C1` [Example 53, 1-[6,7-dichloro-10-(1H-pyrazol-4-yl)-3,4-dihydro-1H-pyrazino[1,2-a]indol-2-yl]-2-hydroxy-ethanone], the figure is 0.0268 µM. Turning to `O=C(O)CCc1[nH]c2c(Cl)c(Cl)ccc2c1-c1cn[nH]c1` [Example 54, 3-(6,7-Dichloro-3-(1H-pyrazol-4-yl)-1H-indol-2-yl) propanoic acid], the IC50 worked out at 0.0381 µM. Under `O=C1CCn2c(c(-c3cn[nH]c3)c3ccc(Cl)c(Cl)c32)N1` [Example 55, 6,7-Dichloro-10-(1H-pyrazol-4-yl)-3,4-dihydro-1H-pyrimido[1,2-a]indol-2-one] stands 0.0946 µM; under `CCOc1cc(Cl)c(Cl)c2[nH]cc(-c3cn[nH]c3)c12` [Example 56, 6,7-Dichloro-4-ethoxy-3-(1H-pyrazol-4-yl)-1H-indole], 0.0826 µM. As for `OCCOc1cc(Cl)c(Cl)c2[nH]cc(-c3cn[nH]c3)c12` [Example 57, 2-((6,7-Dichloro-3-(1H-pyrazol-4-yl)-1H-indol-4-yl)oxy)ethanol], the figure is 0.0352 µM; as for `N#CCOc1cc(Cl)c(Cl)c2[nH]cc(-c3cn[nH]c3)c12` [Example 58, 2-[[6,7-Dichloro-3-(1H-pyrazol-4-yl)-1H-indol-4-yl]oxy]acetonitrile], 0.0158 µM; as for `NC(=O)COc1cc(Cl)c(Cl)c2[nH]cc(-c3cn[nH]c3)c12` [Example 59, 2-[[6,7-Dichloro-3-(1H-pyrazol-4-yl)-1H-indol-4-yl]oxy]acetamide], 0.0242 µM. Under `CC(C#N)Oc1cc(Cl)c(Cl)c2[nH]cc(-c3cn[nH]c3)c12` (centres unmarked) [Example 60, 2-[[6,7-Dichloro-3-(1H-pyrazol-4-yl)-1H-indol-4-yl]oxy]propanenitrile] stands 0.0855 µM; under `N#CCOc1cc(Cl)c(Cl)c2[nH]cc(-n3ccnc3)c12` [Example 61, 2-[(6,7-Dichloro-3-imidazol-1-yl-1H-indol-4-yl)oxy]acetonitrile], 0.0326 µM; under `OCCNc1cc(Cl)c(Cl)c2[nH]cc(-c3cn[nH]c3)c12` [Example 62, 2-[[6,7-Dichloro-3-(1H-pyrazol-4-yl)-1H-indol-4-yl]amino]ethanol], 0.0151 µM.

As for `N#CCNc1cc(Cl)c(Cl)c2[nH]cc(-c3cn[nH]c3)c12` [Example 63, 2-[[6,7-Dichloro-3-(1H-pyrazol-4-yl)-1H-indol-4-yl]amino] acetonitrile], the IC50 is 0.0273 µM. As for `NC(=O)CNc1cc(Cl)c(Cl)c2[nH]cc(-c3cn[nH]c3)c12` [Example 64, 2-[[6,7-Dichloro-3-(1H-pyrazol-4-yl)-1H-indol-4-yl]amino] acetamide], the figure is 0.0486 µM; as for `O=C(CO)Nc1cc(Cl)c(Cl)c2[nH]cc(-c3cn[nH]c3)c12` [Example 65, N-[6,7-Dichloro-3-(1H-pyrazol-4-yl)-1H-indol-4-yl]-2-hydroxy-acetamide], 0.0158 µM. For `CC(=O)Nc1cc(Cl)c(Cl)c2[nH]cc(-c3cn[nH]c3)c12` [Example 66, N-[6,7-Dichloro-3-(1H-pyrazol-4-yl)-1H-indol-4-yl]acetamide], the IC50 came out at 0.0349 µM. Under `O[C@H]1C[C@@H](Nc2cc(Cl)c(Cl)c3[nH]cc(-c4cn[nH]c4)c23)C1` [Example 67, (cis)-3-((6,7-Dichloro-3-(1H-pyrazol-4-yl)-1H-indol-4-yl)amino)cyclobutanol] stands 0.0371 µM; under `O=C1CCc2c(-c3cn[nH]c3)c3ccc(Cl)c(Cl)c3n21` [Example 68, 7,8-Dichloro-4-(1H-pyrazol-4-yl)-2,3-dihydropyrrolo[1,2-a] indol-1-one], 0.0965 µM; under `Clc1ccc2c(-c3cn[nH]c3)c3n(c2c1Cl)CCC(c1nn[nH]n1)C3` (centres unmarked) [Example 69, 3,4-Dichloro-10-(1H-pyrazol-4-yl)-8-(1H-tetrazol-5-yl)-6,7,8,9-tetrahydropyrido[1,2-a]indole], 0.0449 µM. As for `N#CCOc1cc(Cl)c(F)c2[nH]cc(-c3cn[nH]c3)c12` [Example 70, 2-[[6-Chloro-7-fluoro-3-(1H-pyrazol-4-yl)-1H-indol-4-yl]oxy] acetonitrile], the figure is 0.0173 µM.

For the origin of these results see US20230391786A1, “cGAS INHIBITORS” (Eli Lilly and Company, priority 2022, published 2023).
